How the values were obtained:
Type in all cases: cell-based
[1] = target: T1, human TLR7 (Homo sapiens, UniProt Q9NYK1); test: TLR7 inhibition reporter assay (HEK-Blue cells, SEAP reporter, gardiquimod stimulation); conditions: HEK-Blue cells overexpressing human TLR7, SEAP reporter, gardiquimod 7.5 μM
T1 construct: host or cells: HEK-Blue cells
T1 sequence (Q9NYK1 27-1049): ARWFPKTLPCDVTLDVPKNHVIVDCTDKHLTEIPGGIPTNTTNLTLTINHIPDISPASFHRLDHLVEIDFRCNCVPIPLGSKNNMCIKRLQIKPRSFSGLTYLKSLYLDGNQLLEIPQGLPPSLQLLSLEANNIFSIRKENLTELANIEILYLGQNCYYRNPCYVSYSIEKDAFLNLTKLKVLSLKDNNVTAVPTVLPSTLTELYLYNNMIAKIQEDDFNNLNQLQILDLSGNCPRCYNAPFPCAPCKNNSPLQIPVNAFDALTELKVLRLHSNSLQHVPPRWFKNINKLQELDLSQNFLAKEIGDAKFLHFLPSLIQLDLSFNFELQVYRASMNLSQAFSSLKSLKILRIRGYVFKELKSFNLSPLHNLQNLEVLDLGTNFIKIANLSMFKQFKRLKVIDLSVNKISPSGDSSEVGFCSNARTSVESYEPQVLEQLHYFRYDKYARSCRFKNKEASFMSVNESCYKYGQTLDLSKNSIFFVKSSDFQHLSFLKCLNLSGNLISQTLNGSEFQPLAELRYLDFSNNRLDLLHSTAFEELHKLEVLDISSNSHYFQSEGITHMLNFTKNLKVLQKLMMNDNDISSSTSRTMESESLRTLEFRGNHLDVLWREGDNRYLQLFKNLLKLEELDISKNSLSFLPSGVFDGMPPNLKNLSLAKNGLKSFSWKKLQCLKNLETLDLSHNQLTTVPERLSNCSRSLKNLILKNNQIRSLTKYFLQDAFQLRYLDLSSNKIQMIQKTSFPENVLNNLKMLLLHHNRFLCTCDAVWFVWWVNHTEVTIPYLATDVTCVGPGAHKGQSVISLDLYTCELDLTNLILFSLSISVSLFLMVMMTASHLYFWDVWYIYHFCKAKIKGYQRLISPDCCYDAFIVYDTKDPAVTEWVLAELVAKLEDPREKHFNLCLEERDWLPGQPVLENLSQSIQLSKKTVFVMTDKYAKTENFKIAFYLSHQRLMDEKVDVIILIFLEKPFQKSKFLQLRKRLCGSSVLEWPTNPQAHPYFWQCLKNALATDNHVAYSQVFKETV
Procedure, shortened: (§1)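 Percent inhibition is derived from SEAP signal, scaled between agonist-plus-DMSO wells and wells given a known inhibitor. Test compounds (0.05 nM–50 μM) are pre-incubated 30 min at room temperature before agonist addition (TLR7: 7.5 μM gardiquimod; TLR8: 15.9 μM R848; TLR9: 5 nM ODN2006) and 22 h culture at 37 °C.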

[2] = target: T2, human TLR8 (Homo sapiens, UniProt Q9NR97); test: TLR8 inhibition reporter assay (HEK-Blue cells, SEAP reporter, R848 stimulation); conditions: HEK-Blue cells overexpressing human TLR8, SEAP reporter, R848 15.9 μM
T2 construct: host or cells: HEK-Blue cells
T2 sequence (Q9NR97 27-1041): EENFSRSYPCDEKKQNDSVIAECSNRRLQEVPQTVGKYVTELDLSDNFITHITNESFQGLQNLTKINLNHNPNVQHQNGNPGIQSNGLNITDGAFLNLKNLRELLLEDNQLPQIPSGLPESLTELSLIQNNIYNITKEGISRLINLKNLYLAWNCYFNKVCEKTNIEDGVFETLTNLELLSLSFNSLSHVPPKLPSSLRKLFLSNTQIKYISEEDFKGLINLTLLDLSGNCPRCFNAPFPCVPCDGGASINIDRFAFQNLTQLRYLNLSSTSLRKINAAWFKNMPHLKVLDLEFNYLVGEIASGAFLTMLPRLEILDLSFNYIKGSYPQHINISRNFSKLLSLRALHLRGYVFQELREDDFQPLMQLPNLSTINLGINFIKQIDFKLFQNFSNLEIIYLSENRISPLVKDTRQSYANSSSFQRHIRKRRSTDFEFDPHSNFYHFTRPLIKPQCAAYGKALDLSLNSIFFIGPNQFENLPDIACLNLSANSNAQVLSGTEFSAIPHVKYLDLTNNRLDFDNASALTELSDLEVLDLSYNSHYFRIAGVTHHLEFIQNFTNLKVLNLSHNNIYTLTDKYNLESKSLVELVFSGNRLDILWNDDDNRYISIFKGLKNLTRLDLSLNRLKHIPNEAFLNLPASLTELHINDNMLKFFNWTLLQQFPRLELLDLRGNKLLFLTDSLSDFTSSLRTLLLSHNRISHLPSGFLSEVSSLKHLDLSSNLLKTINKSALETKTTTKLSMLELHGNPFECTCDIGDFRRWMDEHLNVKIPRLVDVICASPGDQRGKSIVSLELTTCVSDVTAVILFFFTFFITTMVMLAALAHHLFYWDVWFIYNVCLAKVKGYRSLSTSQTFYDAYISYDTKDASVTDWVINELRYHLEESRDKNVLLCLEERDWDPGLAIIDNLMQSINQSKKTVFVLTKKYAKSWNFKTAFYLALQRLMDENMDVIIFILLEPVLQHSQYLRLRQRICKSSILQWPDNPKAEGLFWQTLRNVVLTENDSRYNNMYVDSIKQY
Procedure, shortened: as §1

[3] = target: T3, human TLR9 (Homo sapiens, UniProt Q9NR96); test: TLR9 inhibition reporter assay (HEK-Blue cells, SEAP reporter, ODN2006 stimulation); conditions: HEK-Blue cells overexpressing human TLR9, SEAP reporter, ODN2006 5 nM
T3 construct: host or cells: HEK-Blue cells
T3 sequence (Q9NR96 26-1032): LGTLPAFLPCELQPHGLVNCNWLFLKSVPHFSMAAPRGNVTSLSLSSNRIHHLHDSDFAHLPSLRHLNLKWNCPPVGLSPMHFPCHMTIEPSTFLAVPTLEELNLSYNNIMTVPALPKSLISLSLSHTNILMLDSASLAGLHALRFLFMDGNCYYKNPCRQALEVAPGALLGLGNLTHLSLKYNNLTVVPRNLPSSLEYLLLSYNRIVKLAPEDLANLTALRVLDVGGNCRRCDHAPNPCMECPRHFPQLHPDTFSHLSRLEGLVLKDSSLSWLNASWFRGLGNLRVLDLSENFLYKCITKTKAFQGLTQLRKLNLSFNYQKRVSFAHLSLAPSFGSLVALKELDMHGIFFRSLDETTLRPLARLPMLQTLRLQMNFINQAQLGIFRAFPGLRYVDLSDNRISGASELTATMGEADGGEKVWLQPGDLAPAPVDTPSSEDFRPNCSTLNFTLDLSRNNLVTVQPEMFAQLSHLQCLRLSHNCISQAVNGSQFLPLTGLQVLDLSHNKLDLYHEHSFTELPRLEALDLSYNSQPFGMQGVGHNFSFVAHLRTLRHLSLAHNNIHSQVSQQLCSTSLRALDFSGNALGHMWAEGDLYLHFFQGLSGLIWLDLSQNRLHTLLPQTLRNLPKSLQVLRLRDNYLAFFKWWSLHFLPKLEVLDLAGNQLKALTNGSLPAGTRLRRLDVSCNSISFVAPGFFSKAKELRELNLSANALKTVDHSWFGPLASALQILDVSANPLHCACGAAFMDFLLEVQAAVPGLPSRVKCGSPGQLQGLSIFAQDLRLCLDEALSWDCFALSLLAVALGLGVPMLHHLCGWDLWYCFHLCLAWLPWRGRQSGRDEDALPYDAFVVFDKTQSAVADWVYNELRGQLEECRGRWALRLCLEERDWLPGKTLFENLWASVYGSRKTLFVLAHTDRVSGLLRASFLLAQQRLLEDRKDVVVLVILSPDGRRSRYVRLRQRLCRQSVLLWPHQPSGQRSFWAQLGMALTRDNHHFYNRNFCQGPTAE
Procedure, shortened: as §1

| Compound | IC50 [1] [nM] | IC50 [2] [nM] | IC50 [3] [nM] |
| --- | --- | --- | --- |
| CCN(C)CC(=O)N1CCOC(c2ccc3[nH]c(-c4cc(OC)c5ncnn5c4)c(C(C)C)c3c2)C1 (stereo not drawn) [Example 359, 2-(ethyl(methyl)amino)-1-(2-(3-isopropyl-2-(8-methoxy-[1,2,4]triazolo[1,5-a]pyridin-6-yl)-1H-indol-5-yl)morpholino)ethanone] | 0.56 | 4.7 | 3630 |
| Cc1cc(-c2[nH]c3ccc(C4CCC(N5CCCC(F)(F)C5)CC4)cc3c2C(C)C)cn(C)c1=O (stereo not drawn) [Example 468] | 280 | 219 | > 50000 |
| Cc1cc(-c2[nH]c3ccc(CCN4CCC(F)CC4)cc3c2C(C)C)cn(C)c1=O [Example 407] | 9 | 1.4 | 13600 |
| COc1cc(-c2[nH]c3ccc(C4CCC(NCC(F)F)CC4)cc3c2C(C)C)cn2ncnc12 (single isomer, unassigned) [Example 68] | 0.85 | 6.8 | 11600 |
| COc1cc(-c2[nH]c3ccc(C4CCC(NCC(N)=O)CC4)cc3c2C(C)C)cn2ncnc12 (stereo not drawn) [Example 109] | 0.83 | 4.1 | 1600 |
| COCCN1CC(c2ccc3[nH]c(-c4cc(C)c5ncnn5c4)c(C(C)C)c3c2)OCC1(C)C (stereo not drawn) [Example 383] | 9 | 41 | 13700 |
| CCc1c(-c2ccc(OC)c(OC)c2)[nH]c2ccc(CN3CC4CN(C(C)C)CC4C3)cc12 (stereo not drawn) [Example 392, 2-(3,4-dimethoxyphenyl)-3-ethyl-5-{[5-(propan-2-yl)-octahydropyrrolo[3,4-c]pyrrol-2-yl]methyl}-1H-indole] | 2390 | 553 | 1180 |
| COc1cc(-c2[nH]c3ccc(C4CCC(N(C)C5CC5)CC4)cc3c2C(C)C)cn2ncnc12 (stereo not drawn) [Example 13] | 1 | 4.8 | 2810 |
| Cc1c(-c2[nH]c3ccc(C4CCC(N(C)C5COC5)CC4)cc3c2C(C)C)cn2cnnc2c1C (stereo not drawn) [Example 528] | 2 | 16 | 5600 |
| Cc1cc(-c2[nH]c3ccc(C4CCC(C)(O)CC4)cc3c2C(C)C)cc(C)n1 (single isomer, unassigned) [Example 169] | 29 | 293 | 41300 |
| Cc1c(-c2[nH]c3ccc(CC4CN(C(C)C)C4)cc3c2C(C)C)cn2ncnc2c1C [Example 435] | 10 | 2.5 | 3410 |
| Cc1cc(-c2[nH]c3ccc(C4CNC4)cc3c2C(C)C)cc(C)n1 [Example 259] | 4 | 11 | 700 |
| COc1cc(-c2[nH]c3ccc(C4CN(C)C4)cc3c2C(C)C)cn2ncnc12 [Example 273] | 28 | 97 | 5250 |
| COc1cc(-c2[nH]c3ccc(C4CCC(N5CC(F)(F)C5)CC4)cc3c2C(C)C)cn2ncnc12 (stereo not drawn) [Example 18] | 5 | 38 | 33600 |
| Cc1cc(-c2[nH]c3ccc(C4CCC(N(C)CC(=O)N(C)C)CC4)cc3c2C(C)C)cn2ncnc12 (single isomer, unassigned) [Example 177, 2-((4-(3-isopropyl-2-(8-methyl-[1,2,4]triazolo[1,5-a]pyridin-6-yl)-1H-indol-5-yl)cyclohexyl)(methyl)amino)-N,N-dimethylacetamide] | 5 | 24 | 7020 |
| COCCN(C)C1CCC(c2ccc3[nH]c(-c4cn5ncnc5c(C)c4C)c(C(C)C)c3c2)CC1 (single isomer, unassigned) [Example 153, 4-(2-(7,8-dimethyl-[1,2,4]triazolo[1,5-a]pyridin-6-yl)-3-isopropyl-1H-indol-5-yl)-N-(2-methoxyethyl)-N-methylcyclohexanamine] | 0.5 | 0.72 | 2140 |
| COc1cc(-c2[nH]c3ccc(C4CN(CC(=O)N(C)C)CCO4)cc3c2C(C)C)cn2ncnc12 (stereo not drawn) [Example 314] | 24 | 13 | > 50000 |

— patent US11878975B2, “Substituted indole compounds useful as TLR inhibitors” (BRISTOL-MYERS SQUIBB COMPANY, priority 2017, dated 2024)
